According to paper PMC11215771 (Journal of Medicinal Chemistry, 2024):
Values joined by “and” are separate entries in the source; they are usually repeats but may differ in a detail not shown here. Identical values can stand only once.

Assays:
[1] = biological target: BACE-1 (mouse Protein, recombinant) (Mus musculus, UniProt P56818); experiment: Nanotemper (Monolith NT.115) binding analysis; conditions: for binding of free acid dyes to recombinant BACE1: 0.1 nM dye, BACE1 0.3–5000 nM
Experimental: For binding analysis, the Monolith NT.115 (Nanotemper) was used. BACE-1 (mouse Protein, recombinant, life technologies, 50002-M08H-250, LCL10JA2204)) was dissolved in 50 mM HEPES/100 mM NaCl, pH 5 to a concentration of 20 μM. […] Samples were loaded on standard capillaries (Nanotemper, MO-K022) and measured in triplicate at 22 °C, using 1%/60% LED power for Alexa488/Alexa568 and 10% MST power. Fluorescence was plotted against protein concentrations.

[2] = biological target: recombinant human BACE1 protein (amino acids 1–457, extracellular domain) (Homo sapiens, UniProt P56817); experiment: Fluorescence correlation spectroscopy (FCS) with BACE1 ECD in solution
Sequence of recombinant human BACE1 protein (amino acids 1–457, extracellular domain) (P56817 22-457): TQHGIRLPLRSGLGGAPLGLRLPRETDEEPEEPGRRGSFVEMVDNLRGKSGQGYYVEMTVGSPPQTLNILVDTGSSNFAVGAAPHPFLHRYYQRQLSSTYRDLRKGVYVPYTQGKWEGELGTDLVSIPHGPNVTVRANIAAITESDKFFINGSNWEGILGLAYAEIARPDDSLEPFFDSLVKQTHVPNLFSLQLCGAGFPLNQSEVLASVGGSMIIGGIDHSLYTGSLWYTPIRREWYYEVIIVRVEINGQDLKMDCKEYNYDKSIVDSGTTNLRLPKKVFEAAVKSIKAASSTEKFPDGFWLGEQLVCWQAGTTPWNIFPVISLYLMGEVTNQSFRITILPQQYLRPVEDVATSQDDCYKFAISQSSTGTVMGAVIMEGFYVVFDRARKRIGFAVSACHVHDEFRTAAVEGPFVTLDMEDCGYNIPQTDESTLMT

[3] = FCS of free Alexa-C3 in HBS in the absence of BACE1; conditions: 100 nM in HBS, pH 5, no BACE1, mean ± SD
[4] = Fluorescence spectroscopy, sensitivity to BSA and Expi293F cells
Experimental: Emission and excitation spectra of all compounds were determined at a concentration of 33 nM in phosphate buffered saline (PBS) using an infinite 200pro (Tecan) with a resolution of 2 nm. […] For sensitivity assessment, we used PBS, PBS + BSA (0.05%), and Expi293F cells in fluorobrite (2 × 10^6 cells/mL).

[5] = biological target: T1, hBACE1 fused to EGFP or mCherry in HEK293T cells (Homo sapiens, UniProt P56817); experiment: Staining of transfected HEK293T cells, confocal imaging: BACE1; format: cell-based; conditions: living HEK293T, preincubation with 2 μM C3
T1 construct: expressed in transfected cells; host or cells: HEK293T
T1 sequence (P56817 46-501): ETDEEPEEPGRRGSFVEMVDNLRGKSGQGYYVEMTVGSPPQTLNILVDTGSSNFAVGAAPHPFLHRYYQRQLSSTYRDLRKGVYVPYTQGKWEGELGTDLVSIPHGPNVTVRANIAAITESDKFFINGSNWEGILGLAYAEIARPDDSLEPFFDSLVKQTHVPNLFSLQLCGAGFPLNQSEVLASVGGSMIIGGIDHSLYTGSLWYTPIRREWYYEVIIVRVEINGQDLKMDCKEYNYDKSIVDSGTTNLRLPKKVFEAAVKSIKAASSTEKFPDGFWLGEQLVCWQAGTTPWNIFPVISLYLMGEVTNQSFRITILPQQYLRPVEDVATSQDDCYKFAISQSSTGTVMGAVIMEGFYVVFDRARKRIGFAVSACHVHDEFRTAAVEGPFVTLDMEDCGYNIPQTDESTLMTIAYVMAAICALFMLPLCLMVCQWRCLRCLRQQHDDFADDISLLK
Experimental: (§1) Next, we explored the performance of the new Alexa-C3 compounds in living cells. Because of the rather hydrophilic properties, we exclusively targeted the cell membrane. To prevent intracellular accumulation, we first performed stainings at 4 °C arresting ATP-dependent endocytosis. […] All of the constructs were tagged at the C-terminus with either EGFP or mCherry to visualize subcellular expression. […] With these experiments, we want to exclude that a lack of staining is caused by an impaired accessibility of the protein by Alexa-C3 compounds. […] We then tested samples with BACE1 expression after fixation of the cells with paraformaldehyde (PFA).
(§2) (D) All conjugates were also probed on cells fixed with 4% paraformaldehyde (PFA) for 15 min prior to staining. […] Scale bars represent 5 μm (A–D) and 20 μm (E). […] Samples were excited at 488, 561, and 633 nm, respectively.
(§3) HEK293T cells (ATCC accession number CRL-11268) were maintained in Dulbecco's modified Eagle's medium (Sigma-Aldrich D6046) with 1g/L glucose, supplemented with 10% FCS (Merck) and 1% penicillin/streptomycin (PAA). CHO-K1 cells (ATCC #CCL-61) were maintained in modified phenol red free RPMI-1640 medium (Sigma-Aldrich, R7509), supplemented with 2 mM L-glutamine (Sigma-Aldrich, G7513), and 10% FCS (Merck). Cells were cultured at 37 °C in a 5% CO2 atmosphere. The following plasmids were used for transfection with the amount of DNA indicated (per 35 mm Petri dish): hBACE1 (NM_012104.4), 50 ng for single molecule recordings, 200 ng otherwise; hBACE1 fused to EGFP or mCherry, 75 ng; hBACE1 D289N fused to EGFP or mCherry, 75 ng; hBACE1 D289N, 200–400 ng; hBACE2 (NM_012105.3) fused to EGFP, 75 ng; hCathepsinD (HsCD00438327), Harvard PlasmID, 75 ng. Transfection was performed 24 h after plating using jetPEI (Polyplus) according to the manufacturer’s protocol.
For labeling, we plated HEK293T cells onto sterile 18 mm 1.5H borosilicate coverslips (VWR), coated with poly-D-lysine (Sigma). […] In addition, some cells were also fixed with 4% PFA or permeabilized with HBS + 50 μg/mL of Saponin for 15 min prior to staining as stated in the figure legend. After staining, live cells were washed with HBS twice. Confocal imaging was conducted at room temperature in HBS using the 63× objective and the pinhole set to 1 AU. Confocal imaging was performed 24 h after transfection.

[6] = biological target: T2, hBACE1 D289N (proteolytic inactive mutant) in HEK293T cells (Homo sapiens, UniProt P56817, D289N); experiment: Staining of transfected HEK293T cells, confocal imaging: BACE1 D289N; format: cell-based
T2 construct: expressed in transfected cells; host or cells: HEK293T
T2 sequence (P56817 46-501 D289N): as the sequence (P56817 46-501) above, with D244N counted along it
Experimental: as §1, §2, §3
For labeling, we plated HEK293T cells onto sterile 18 mm 1.5H borosilicate coverslips (VWR), coated with poly-D-lysine (Sigma). […]

[7] = biological target: T3, wild-type hBACE1 in CHO-K1 cells (Homo sapiens, UniProt P56817); experiment: Single molecule TIRF microscopy and bleaching step analysis in CHO-K1 cells; format: cell-based; conditions: 200 nM probe, fixed CHO-K1, TIRF, after rolling background subtraction
T3 construct: expressed in transfected cells; host or cells: CHO-K1
T3 sequence (P56817 46-501): as the sequence (P56817 46-501) above
Experimental: Due to the high photostability and quantum yield of the Alexa dyes, the C3-compounds are potential tools for single molecule fluorescence microscopy of BACE1. […] CHO-K1 cells were transfected with wild-type BACE1. […] The samples were then recorded using total internal reflection fluorescence (TIRF) microscopy. […] Prior to analysis, ImageJ rolling background subtraction was applied[45] (Figure 6A, right panel). […] Single particles were identified and time traces of fluorescence intensity were extracted using GMimPro[46] (Figure 6B). The time traces were then subjected to a bleaching-step analysis with quickPBSA[47] (Figure 6B). […] The msfGFP was reported previously to display a fluorescence probability of about 50%, defined as combined probability of fluorescence, detection in the specific imaging system and identification in the analysis of a BACE1 molecule.[48] […] Here, the best fits indicated also a fluorescence probability of about 60%, but with a considerably lower fit error compared to dimers only (Figure 6D, blue traces).
The panel in the middle depicts typical single molecule complexes 48 h after transfection with 50 ng wild type BACE1. […] The insets highlight single fluorescence spots at higher magnification. […] (B) Single fluorescence spots were located and fluorescence intensities over time were extracted (see methods). […]

[8] = biological target: T4, recombinant BACE1 extracellular domain (Homo sapiens, UniProt P56817); experiment: FRET-based BACE1 inhibition (BACE1-activity FRET) assay; format: biochemical
T4 construct: purchased Thermo Fisher Scientific P2985
T4 sequence (P56817 46-457 limits assumed): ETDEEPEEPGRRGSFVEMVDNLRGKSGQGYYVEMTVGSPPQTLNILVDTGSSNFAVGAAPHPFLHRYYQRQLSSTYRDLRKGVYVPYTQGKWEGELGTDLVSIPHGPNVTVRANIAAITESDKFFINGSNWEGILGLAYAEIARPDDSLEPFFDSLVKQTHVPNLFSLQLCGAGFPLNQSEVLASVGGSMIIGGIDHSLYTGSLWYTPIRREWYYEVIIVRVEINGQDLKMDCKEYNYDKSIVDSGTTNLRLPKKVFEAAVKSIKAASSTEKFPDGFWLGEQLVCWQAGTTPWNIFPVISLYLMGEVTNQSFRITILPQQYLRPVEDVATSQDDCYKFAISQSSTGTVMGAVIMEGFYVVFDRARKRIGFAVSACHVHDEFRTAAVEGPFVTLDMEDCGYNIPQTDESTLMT
Experimental: In addition, we performed a fluorescence resonance energy transfer (FRET)-based BACE1 inhibition assay using the recombinant BACE1 extracellular domain and a BACE1 substrate coupled to a donor fluorophore, which is unquenched […] to the activity of BACE1. […] (Figure 1F).
Protease activity was determined using a FRET-based assay with recombinant BACE1 protein (Thermo Fisher Scientific; P2985). BACE1 inhibition was determined in end-points assays according to the manufacturer’s protocol except using a reduced volume of 12 μL in 384-well plates (Greiner, 788896). […] Fluorescence intensities were quantified with an infinite 200pro reader (Tecan) using top-reading mode. Data points were approximated using a logistic fit to determine half-inhibitory concentrations (pIC50).

BACE1 = conditions: cited from earlier work
[9] = BACE1 concentration 0.305 (unit not given; 0.3–5000 nM), triplicate
[10] = BACE1 concentration 0.61, triplicate
[11] = BACE1 concentration 1.221, triplicate
[12] = BACE1 concentration 2.441, triplicate
[13] = BACE1 concentration 4.883, triplicate
[14] = BACE1 concentration 9.766, triplicate
[15] = BACE1 concentration 19.531, triplicate
[16] = BACE1 concentration 39.062, triplicate
[17] = BACE1 concentration 78.125, triplicate
[18] = BACE1 concentration 156.25, triplicate
[19] = BACE1 concentration 312.5, triplicate
[20] = BACE1 concentration 625, triplicate
[21] = BACE1 concentration 1250, triplicate
[22] = BACE1 concentration 2500, triplicate
[23] = BACE1 concentration 5000, triplicate

Sequence of BACE-1 (mouse Protein, recombinant) (P56818 46-457 limits assumed): as the sequence (P56817 46-457 limits assumed) above, with P6S, V162I, L165I, S180T, V182A, I340V, L393A counted along it

Structure (SMILES)	binding of free acid dyes to recombinant BACE1 [1]	fluorescence reading, single replicates [1, 9]	fluorescence reading, single replicates [1, 10]	fluorescence reading, single replicates [1, 11]	fluorescence reading, single replicates [1, 12]	fluorescence reading, single replicates [1, 13]	fluorescence reading, single replicates [1, 14]	fluorescence reading, single replicates [1, 15]	fluorescence reading, single replicates [1, 16]	fluorescence reading, single replicates [1, 17]	fluorescence reading, single replicates [1, 18]	fluorescence reading, single replicates [1, 19]	fluorescence reading, single replicates [1, 20]	fluorescence reading, single replicates [1, 21]	fluorescence reading, single replicates [1, 22]	fluorescence reading, single replicates [1, 23]	further results
CC1(C)C=C(CS(=O)(=O)O)c2cc3c(cc2=N1)Oc1cc2c(cc1C=3c1cc(C(=O)O)ccc1C(=O)O)C(CS(=O)(=O)O)=CC(C)(C)N2 [Alexa568]	did not observe any indication for affinity	1000.167 and 1000.199 and 1000.049	1000.123 and 1000.132 and 1000.01	1000.102 and 1000.025 and 1000.071	1000.271 and 1000.043 and 1000.008	1000.035 and 1000.075 and 1000.095	999.978 and 999.965 and 1000.148	1000.105 and 1000.065 and 999.949	1000.023 and 999.969 and 1000.096	1000.136 and 1000.189 and 1000.122	1000.014 and 1000.053 and 1000.126	999.991 and 999.997 and 999.948	999.898 and 999.877 and 999.931	999.758 and 999.742 and 999.781	999.645 and 999.707 and 999.65	999.562 and 999.587 and 999.529	–
C[C@@H](NC(=O)c1cc(C(=O)N[C@@H](Cc2ccccc2)[C@H](O)CNC2CC2)cc(N(C)S(=O)(=O)CCCNC(=O)c2ccc(C(=O)O)c(C3=c4cc5c(cc4Oc4cc6c(cc43)C(CS(=O)(=O)O)=CC(C)(C)N6)=NC(C)(C)C=C5CS(=O)(=O)O)c2)c1)c1ccccc1	–	–	–	–	–	–	–	–	–	–	–	–	–	–	–	–	EC50 [2]: 45.7 nM; diffusion time constant of the second (BACE1-bound, slow) population ([2]; 100 nM probe with BACE1 ECD, pH 5, mean ± SEM, n = 3 preparations): 300 ± 20 μs; diffusion time constant of free probe [3]: 49 ± 2 μs; increase of fluorescent output in PBS supplemented with BSA ([4]; PBS + BSA (0.05%) vs PBS alone): +228%; increase of fluorescent output in presence of Expi293F cells ([4]; mock Expi293F cells in fluorobrite vs PBS alone): +302%; staining of BACE1 after preincubation with unconjugated C3 [5]: no appreciable fluorescence; staining of BACE1 D289N [6]: no appreciable fluorescence; signal-to-background ratio [7]: 5.9; increase of potency of the pIC50 in a cell-free assay vs parent C3 ([8]; compared with unconjugated C3): 10 fold; IC50 ([8]; logistic fit, n = 3 for each compound, read-out: pIC50 (negative logarithm of the half-inhibitory concentration) (converted)): 2.45 nM
N=c1ccc2c(-c3cc(C(=O)O)ccc3C(=O)O)c3ccc(N)c(S(=O)(=O)O)c3oc-2c1S(=O)(=O)O [Alexa488]	did not observe any indication for affinity	996.43 and 995.816 and 995.716	995.873 and 995.729 and 996.039	995.788 and 996.299 and 996.353	996.08 and 995.975 and 995.829	996.289 and 995.771 and 996.152	995.856 and 996.198 and 996.218	996.164 and 995.908 and 996.132	996.17 and 996.327 and 995.657	996.076 and 996.3 and 995.686	996.777 and 995.969 and 996.167	996.159 and 995.85 and 996.173	995.972 and 996.54 and 995.887	996.02 and 995.911 and 996.501	996.211 and 996.223 and 996.163	996.477 and 996.486 and 996.65	–
C[C@@H](NC(=O)c1cc(C(=O)N[C@@H](Cc2ccccc2)[C@H](O)CNC2CC2)cc(N(C)S(C)(=O)=O)c1)c1ccccc1 [C3]	–	–	–	–	–	–	–	–	–	–	–	–	–	–	–	–	IC50 (BACE1): nanomolar range
